Test results: patent US20240391921A1, “CRYSTAL FORM OF IMIDAZOLINONE DERIVATIVE” (CHENGDU BAIYU PHARMACEUTICAL CO., LTD., priority 2021, published 2024)

Legend:
[1] = Pharmacokinetic assay in ICR mice; type: in vivo; details: male ICR mice, iv 1 mg/kg and po 10 mg/kg, plasma by LC/MS/MS
Experimental: ICR mice (purchased from Beijing Viton Lihua Laboratory Animal Technology Co.)
2.2 Experimental procedure • (1) Healthy male ICR mice (18-22 g) were prepared, with 18 mice for each compound which were divided into 2 groups (iv and po groups) of 9 mice each, and 3 mice were selected for blood collection at each time point. • (2) After fasting (free water intake) overnight, the compound of the invention was solubilized (or formed into a suspension) with 5% DMSO, 95% 30% HP-β-CD (v: v) as solvent. The compound was administered via the tail vein (iv, 1 mg/kg) and by gavage (po, 10 mg/kg), respectively. • (3) In the iv group, 0.1 mL of blood was collected from the submandibular vein at 5 min, 15 min, 0.5 h, 1 h, 2 h, 4 h, 8 h, 12 h, and 24 h, respectively, and the blood was anticoagulated with EDTA-K2, and then centrifuged at 4° C. for 5 min to separate the plasma, which was stored at-20° C. before measurement. • (4) In the po group, 0.1 mL of blood was collected from the submandibular vein before and after administration at 15 min, 0.5h, 1h, 2h, 4h, 6h, 8h, 12h and 24h respectively, and processed in the same manner as in the iv group. • (5) The concentration of the compound of the present invention in plasma was determined by a LC/MS/MS method. • (6) The results were calculated and fitted using Analyst 1.6 from AB.

[2] = Dynamic vapor sorption (DVS) test; type: physicochemical
Experimental: The crystalline form I of Compound A prepared in Example 3 was subjected to dynamic vapor sorption test, and the dynamic vapor sorption (DVS) curves were acquired on DVS Intrinsic of SMS (Surface Measurement Systems). The relative humidity at 25° C. was corrected with the deliquescence points of LiCl, Mg (NO3)2, and KCl.

[3] = Solid-state stability (XRPD for physical, HPLC purity for chemical stability); type: physicochemical

pharmacokinetic properties [1] | change in sample weight (DVS) ([2]; 0% RH-95% RH-0% RH at 25° C.) | hygroscopicity (DVS) ([2]; 0% RH-95% RH-0% RH at 25° C.) | Structure (SMILES) | transformation of crystalline form before and after DVS (XRPD comparison) ([2]; XRPD before and after DVS) | solid-state stability: crystalline transformation (XRPD) and purity (HPLC) ([3]; 25° C./60% RH/open, 1 week) | solid-state stability: crystalline transformation (XRPD) and purity (HPLC) ([3]; 40° C./75% RH/open, 1 week) | solid-state stability: crystalline transformation (XRPD) and purity (HPLC) ([3]; 60° C./close, 1 day) | solid-state stability: crystalline transformation (XRPD) and purity (HPLC) ([3]; 80° C./close, 1 day)
good pharmacokinetic properties | – | – | CCn1c(=O)n(C2CCOCC2)c2nc(Nc3cc(F)c(C(N)=O)cc3C)ncc21 [Compound A, 4-((7-ethyl-8-oxo-9-(tetrahydro-2H-pyran-4-yl)-8,9-dihydro-7H-purin-2-yl)amino)-2-fluoro-5-methylbenzamide] | – | – | – | – | –
– | less than 0.2% | free or almost free of hygroscopicity | CCn1c(=O)n(C2CCOCC2)c2nc(Nc3cc(F)c(C(N)=O)cc3C)ncc21 [crystalline form I, 4-((7-ethyl-8-oxo-9-(tetrahydro-2H-pyran-4-yl)-8,9-dihydro-7H-purin-2-yl)amino)-2-fluoro-5-methylbenzamide] | no transformation of crystalline form occurred | no crystalline transformation or decrease in purity was observed | no crystalline transformation or decrease in purity was observed | no crystalline transformation or decrease in purity was observed | no crystalline transformation or decrease in purity was observed
